Experimental data published in PubChem BioAssay (NCI).
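The compound was tested at five concentrations on cells cultured in 96-well plates, with a 48-hour exposure period. GI50 is the concentration that inhibits growth by half. At the TGI there is no net growth.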

What was measured:
Test in all cases: DTP human tumour cell line panel, 48 h
MOLT-4 leukemia = system: MOLT-4 leukemia
T-47D breast = system: T-47D breast
NCI-H226 lung = system: NCI-H226 lung
OVCAR-5 ovarian = system: OVCAR-5 ovarian
UO-31 renal = system: UO-31 renal
COLO 205 colon = system: COLO 205 colon
UACC-257 melanoma = system: UACC-257 melanoma
SK-MEL-2 melanoma = system: SK-MEL-2 melanoma
786-0 renal = system: 786-0 renal
HL-60(TB) leukemia = system: HL-60(TB) leukemia
SF-539 CNS = system: SF-539 CNS
UACC-62 melanoma = system: UACC-62 melanoma
SNB-75 CNS = system: SNB-75 CNS
MDA-MB-435 = system: MDA-MB-435
A549 NSCLC = system: A549 NSCLC
HOP-62 NSCLC = system: HOP-62 NSCLC
NCI-H522 lung = system: NCI-H522 lung
OVCAR-3 ovarian = system: OVCAR-3 ovarian
NCI-H23 lung = system: NCI-H23 lung
HCT-15 colon = system: HCT-15 colon
HS 578T breast = system: HS 578T breast
NCI-H460 lung = system: NCI-H460 lung
MCF7 breast = system: MCF7 breast
M14 melanoma = system: M14 melanoma
SW-620 colon = system: SW-620 colon
PC-3 prostate = system: PC-3 prostate
HT29 colon = system: HT29 colon
KM12 colon = system: KM12 colon
EKVX NSCLC = system: EKVX NSCLC
DU-145 prostate = system: DU-145 prostate
LOX IMVI melanoma = system: LOX IMVI melanoma
K-562 leukemia = system: K-562 leukemia
MALME-3M melanoma = system: MALME-3M melanoma
A498 renal = system: A498 renal
U251 CNS = system: U251 CNS
SF-295 CNS = system: SF-295 CNS
CAKI-1 renal = system: CAKI-1 renal
CCRF-CEM leukemia = system: CCRF-CEM leukemia
TK-10 renal = system: TK-10 renal
IGROV1 ovarian = system: IGROV1 ovarian
SK-MEL-5 melanoma = system: SK-MEL-5 melanoma
RXF 393 renal = system: RXF 393 renal
SR leukemia = system: SR leukemia
SN12C renal = system: SN12C renal
OVCAR-4 ovarian = system: OVCAR-4 ovarian
MDA-MB-231 breast = system: MDA-MB-231 breast
NCI/ADR-RES ovarian = system: NCI/ADR-RES ovarian
HOP-92 NSCLC = system: HOP-92 NSCLC
BT-549 breast = system: BT-549 breast
ACHN renal = system: ACHN renal
HCT-116 colon = system: HCT-116 colon
RPMI-8226 leukemia = system: RPMI-8226 leukemia
HCC-2998 colon = system: HCC-2998 colon
SNB-19 CNS = system: SNB-19 CNS
SK-OV-3 ovarian = system: SK-OV-3 ovarian
OVCAR-8 ovarian = system: OVCAR-8 ovarian
SF-268 CNS = system: SF-268 CNS
SK-MEL-28 melanoma = system: SK-MEL-28 melanoma

`CN(C)CCOC(=O)Nc1nc2ccc(Sc3ccccc3)cc2[nH]1` was tested, and the GI50 (MOLT-4 leukemia) was 5.32 µM, the TGI (MOLT-4 leukemia) was 20.1 µM and the GI50 (T-47D breast) was 4.66 µM. The TGI (T-47D breast) was 21.4 µM, the GI50 (NCI-H226 lung) was 4.61 µM and the TGI (NCI-H226 lung) was 28.1 µM. It also gave a GI50 (OVCAR-5 ovarian) of 4.22 µM, a TGI (OVCAR-5 ovarian) of 21.1 µM and a GI50 (UO-31 renal) of 3.11 µM. It also gave a TGI (UO-31 renal) of 15.4 µM, a GI50 (COLO 205 colon) of 2.16 µM and a TGI (COLO 205 colon) of 5.19 µM. For the same molecule, the GI50 (UACC-257 melanoma) was 13.4 µM, the TGI (UACC-257 melanoma) was 29.4 µM and the GI50 (SK-MEL-2 melanoma) was 5.55 µM. For the same molecule, the TGI (SK-MEL-2 melanoma) was 22.2 µM, the GI50 (786-0 renal) was 3.8 µM and the TGI (786-0 renal) was 15 µM. For the same molecule, the GI50 (HL-60(TB) leukemia) was 3.24 µM, the TGI (HL-60(TB) leukemia) was 8.59 µM and the GI50 (SF-539 CNS) was 2.27 µM. The TGI (SF-539 CNS) was 5.85 µM, the GI50 (UACC-62 melanoma) was 3.74 µM and the TGI (UACC-62 melanoma) was 16.7 µM. It also gave a GI50 (SNB-75 CNS) of 1.98 µM, a TGI (SNB-75 CNS) of 7.66 µM and a GI50 (MDA-MB-435) of 0.432 µM. It also gave a TGI (MDA-MB-435) of 2.26 µM, a GI50 (A549 NSCLC) of 4.97 µM and a TGI (A549 NSCLC) of 18.3 µM. For the same molecule, the GI50 (HOP-62 NSCLC) was 3.94 µM, the TGI (HOP-62 NSCLC) was 15.5 µM and the GI50 (NCI-H522 lung) was 2.58 µM. It also gave a TGI (NCI-H522 lung) of 10.8 µM, a GI50 (OVCAR-3 ovarian) of 2.66 µM and a TGI (OVCAR-3 ovarian) of 9.06 µM. The GI50 (NCI-H23 lung) was 4.08 µM, the TGI (NCI-H23 lung) was 19.5 µM and the GI50 (HCT-15 colon) was 1.96 µM. The TGI (HCT-15 colon) was 16.2 µM, the GI50 (HS 578T breast) was 4 µM and the TGI (HS 578T breast) was 28.8 µM. The GI50 (NCI-H460 lung) was 3.69 µM, the TGI (NCI-H460 lung) was 13.7 µM and the GI50 (MCF7 breast) was 1.35 µM. It also gave a TGI (MCF7 breast) of 15.2 µM, a GI50 (M14 melanoma) of 2.28 µM and a TGI (M14 melanoma) of 9.29 µM. It also gave a GI50 (SW-620 colon) of 3.69 µM, a TGI (SW-620 colon) of 16.3 µM and a GI50 (PC-3 prostate) of 3 µM. For the same molecule, the TGI (PC-3 prostate) was 22.7 µM, the GI50 (HT29 colon) was 3.57 µM and the TGI (HT29 colon) was 10.7 µM. For the same molecule, the GI50 (KM12 colon) was 3.51 µM, the TGI (KM12 colon) was 19.7 µM and the GI50 (EKVX NSCLC) was 5.75 µM. For the same molecule, the TGI (EKVX NSCLC) was 22.7 µM, the GI50 (DU-145 prostate) was 4.09 µM and the TGI (DU-145 prostate) was 18.8 µM. It also gave a GI50 (LOX IMVI melanoma) of 4.26 µM, a TGI (LOX IMVI melanoma) of 15.9 µM and a GI50 (K-562 leukemia) of 0.613 µM. For the same molecule, the TGI (K-562 leukemia) was 13.7 µM, the GI50 (MALME-3M melanoma) was 4.93 µM and the TGI (MALME-3M melanoma) was 19.5 µM. It also gave a GI50 (A498 renal) of 2.62 µM, a TGI (A498 renal) of 10.6 µM and a GI50 (U251 CNS) of 3.04 µM. The TGI (U251 CNS) was 12.1 µM, the GI50 (SF-295 CNS) was 2.96 µM and the TGI (SF-295 CNS) was 13.4 µM. It also gave a GI50 (CAKI-1 renal) of 3.16 µM, a TGI (CAKI-1 renal) of 17.2 µM and a GI50 (CCRF-CEM leukemia) of 2.67 µM. It also gave a TGI (CCRF-CEM leukemia) of 16.3 µM, a GI50 (TK-10 renal) of 11 µM and a TGI (TK-10 renal) of 25.5 µM. For the same molecule, the GI50 (IGROV1 ovarian) was 6.32 µM, the TGI (IGROV1 ovarian) was 27.6 µM and the GI50 (SK-MEL-5 melanoma) was 3.31 µM. For the same molecule, the TGI (SK-MEL-5 melanoma) was 12.5 µM, the GI50 (RXF 393 renal) was 1.85 µM and the TGI (RXF 393 renal) was 6.6 µM. The GI50 (SR leukemia) was 0.921 µM, the TGI (SR leukemia) was 19.4 µM and the GI50 (SN12C renal) was 5.23 µM. It also gave a TGI (SN12C renal) of 27.5 µM, a GI50 (OVCAR-4 ovarian) of 6.3 µM and a TGI (OVCAR-4 ovarian) greater than 100 µM. It also gave a GI50 (MDA-MB-231 breast) of 3.25 µM, a TGI (MDA-MB-231 breast) of 12.3 µM and a GI50 (NCI/ADR-RES ovarian) of 2.44 µM. It also gave a TGI (NCI/ADR-RES ovarian) of 9.65 µM, a GI50 (HOP-92 NSCLC) of 1.33 µM and a TGI (HOP-92 NSCLC) of 6.73 µM. For the same molecule, the GI50 (BT-549 breast) was 3.2 µM, the TGI (BT-549 breast) was 13.5 µM and the GI50 (ACHN renal) was 6.52 µM. It also gave a TGI (ACHN renal) of 19.2 µM, a GI50 (HCT-116 colon) of 3.16 µM and a TGI (HCT-116 colon) of 12.6 µM. It also gave a GI50 (RPMI-8226 leukemia) of 3.72 µM, a TGI (RPMI-8226 leukemia) of 17.9 µM and a GI50 (HCC-2998 colon) of 3.31 µM. For the same molecule, the TGI (HCC-2998 colon) was 14.1 µM, the GI50 (SNB-19 CNS) was 4.87 µM and the TGI (SNB-19 CNS) was 19.5 µM. It also gave a GI50 (SK-OV-3 ovarian) of 3.87 µM, a TGI (SK-OV-3 ovarian) of 23.7 µM and a GI50 (OVCAR-8 ovarian) of 4.26 µM. It also gave a TGI (OVCAR-8 ovarian) of 26.8 µM, a GI50 (SF-268 CNS) of 6.41 µM and a TGI (SF-268 CNS) of 25.4 µM. For the same molecule, the GI50 (SK-MEL-28 melanoma) was 9.19 µM and the TGI (SK-MEL-28 melanoma) was 24.3 µM.
